From US20140017701A1, “CHIMERIC PDK1 KINASES” (priority 2011, published 2014)

Assays:
PRK2 = target: T1, PRK2 (Homo sapiens, UniProt Q16513); experiment: Protein kinase activity assay, PRK2; assay type: biochemical; settings: Table I a; percentage of catalytic activity compared to DMSO; Crosstide substrate
T1 construct: made in house; host or cells: HEK293
Experimental: For the expression and purification of protein kinases fused to GST, pEBG-2T derived plasmids were transfected into 8×14.5 cm dishes containing HEK293 cells using the PEI method ([…] and […]/14.5 cm dish). The cells were lysed after 48 h in a buffer containing 50 mM Tris-HCl pH 7.5, 1 mM EGTA, 1 mM EDTA, 1% (w/v) Triton X-100, 1 mM sodium orthovanadate, […], 5 mM sodium pyrophosphate, 0.27 M sucrose, 0.1% β-mercaptoethanol, and 1 tablet of protease inhibitor cocktail per 50 ml of buffer. Lysates were frozen in liquid nitrogen and kept at −80° C. until required. Purification involved incubation of the cleared lysate with glutathione sepharose, followed by 2 washes with 0.5 M NaCl in lysis buffer, 8 washes with a buffer containing 50 mM Tris-HCl, 0.1 mM EGTA and 0.1% β-mercaptoethanol (buffer A), and a last wash with buffer A supplemented with 0.26 M sucrose. […]
The protein kinase activity assays were performed essentially as previously described (Engel, M. et al. Embo J 25, 5469-80 (2006)). The assays were done in a 96-well format and 4 μl aliquots spotted on P81 phospho-cellulose papers (Whatman) using epMotion 5070 (Eppendorf), washed in 0.01% phosphoric acid, dried, and then exposed and analyzed using PhosphoImager technology (FLA-9000 Starion, Fujifilm). […]

PDK1 = experiment: Protein kinase activity assay, PDK1; assay type: biochemical, human; settings: for Effect on PDK1 activity: PDK1 wt / PDK1 50-359; for Activity (%) PDK1: Table I a, percentage of catalytic activity compared to DMSO, T308tide substrate, 50 μM stated for PS171
Experimental: (§1) For the expression and purification of protein kinases fused to GST, pEBG-2T derived plasmids were transfected into 8×14.5 cm dishes containing HEK293 cells using the PEI method ([…] and […]/14.5 cm dish). The cells were lysed after 48 h in a buffer containing 50 mM Tris-HCl pH 7.5, 1 mM EGTA, 1 mM EDTA, 1% (w/v) Triton X-100, 1 mM sodium orthovanadate, […], 5 mM sodium pyrophosphate, 0.27 M sucrose, 0.1% β-mercaptoethanol, and 1 tablet of protease inhibitor cocktail per 50 ml of buffer. Lysates were frozen in liquid nitrogen and kept at −80° C. until required. Purification involved incubation of the cleared lysate with glutathione sepharose, followed by 2 washes with 0.5 M NaCl in lysis buffer, 8 washes with a buffer containing 50 mM Tris-HCl, 0.1 mM EGTA and 0.1% β-mercaptoethanol (buffer A), and a last wash with buffer A supplemented with 0.26 M sucrose. Elution was performed with this last buffer containing 20 mM glutathione and the GST-fusion protein was cleared from resin by filtration through a “SigmaPrep” spin column (Sigma). GST-fusion proteins were aliquoted, snap frozen in liquid nitrogen and kept at −80° C. until use. Purity at this stage was above 85% as estimated by SDS-PAGE and staining with Coomassie Brilliant Blue R250. PRK2 was expressed from pEBG-2T-PRK2 (Balendran, A. et al. J Biol Chem 275, 20806-13. (2000)), SGK1 from pEBG-2T-SGK1-ΔN[Ser422Asp], PKBα from pEBG-2T-PKBα[Ser473Asp] (Biondi et al., D. R. Embo J 20, 4380-90. (2001)), PKCl from pEBG-2T-PKCl and PKCζ from pEBG-2T-PKCζ. PDK1 and S6K1 were expressed in Sf9 insect cells using a baculovirus expression system from pFastBac-PDK1 and pFastBac-56K1-T2[Thr412Glu].
(§2) The protein kinase activity assays were performed essentially as previously described (Engel, M. et al. Embo J 25, 5469-80 (2006)). The assays were done in a 96-well format and 4 μl aliquots spotted on P81 phospho-cellulose papers (Whatman) using epMotion 5070 (Eppendorf), washed in 0.01% phosphoric acid, dried, and then exposed and analyzed using PhosphoImager technology (FLA-9000 Starion, Fujifilm). Atypical PKC (aPKC) activity assays were performed in a total volume of 20 μl containing 50 mM Tris-HCl pH 7.5, 0.05 mg/ml BSA, 0.1% (v/v) 2-mercaptoethanol, 10 mM MgCl2, 100 μM [γ^32P]ATP (5-50 cpm/pmol), 0.003% Brij, 30-50 ng of aPKC, and MBP (10 μM) or PSRtide (100 μM) as the substrate. After 15 min pre-incubation, the kinase reaction was started by addition of 6 μl of an ATP-Mg mix. When required, lipid activator (LA) phosphatidylserine (100 ng) or PKC lipid activator mix (1×) was included in the pre-incubation. Low basal activity and consistent activation of 1-592 PKCζ and 498 PKCζ by LA was obtained when the pre-incubation time was started by addition of the whole mix on the enzyme.
The substrates were T308tide (200 μM) for PDK1, Kemptide (100 μM) for PKA, and Crosstide (100 μM) for SGK, PKB, S6K, and PRK2. The activity assays for PKCα, β, θ, and δ were performed in the presence of PKC lipid activator mix (1×) using 3 μM of histone H1 as substrate.
The activity assays were performed in duplicates or triplicates (in the case of the temperature stability assay) with less than 10% difference between the duplicate pairs. The activity assays shown were repeated at least twice with similar results. Moreover, most of the assays shown were repeated multiple times with enzymes from independent purifications with similar results. Representative experiments are shown. […]

PKCι = target: T2, PKCι (Homo sapiens, UniProt P41743); experiment: Protein kinase activity assay, PKCι; assay type: biochemical; settings: for Effect on PKCι activity: 50 μM; for Activity (%) Atypical PKCs PKCι: Table I b, percentage of catalytic activity compared to DMSO
T2 construct: made in house; host or cells: HEK293
T2 sequence (P41743 10-596 limits assumed): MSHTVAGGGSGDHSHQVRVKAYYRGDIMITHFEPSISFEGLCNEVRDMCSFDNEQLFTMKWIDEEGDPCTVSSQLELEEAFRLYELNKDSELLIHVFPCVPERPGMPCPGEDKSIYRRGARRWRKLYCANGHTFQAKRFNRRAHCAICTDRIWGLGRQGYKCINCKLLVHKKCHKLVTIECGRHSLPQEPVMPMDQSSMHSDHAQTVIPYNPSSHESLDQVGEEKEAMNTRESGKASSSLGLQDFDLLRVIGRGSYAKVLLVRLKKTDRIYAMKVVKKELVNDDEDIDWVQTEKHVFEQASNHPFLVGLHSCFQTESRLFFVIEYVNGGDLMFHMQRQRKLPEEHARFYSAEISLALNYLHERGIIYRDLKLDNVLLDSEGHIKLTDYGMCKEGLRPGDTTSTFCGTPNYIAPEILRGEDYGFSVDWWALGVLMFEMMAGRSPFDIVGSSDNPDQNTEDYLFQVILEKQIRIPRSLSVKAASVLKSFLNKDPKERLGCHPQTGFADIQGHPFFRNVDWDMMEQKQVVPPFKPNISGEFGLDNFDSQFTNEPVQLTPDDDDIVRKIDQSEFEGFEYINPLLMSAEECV
Experimental: as §1
as §2, with “enzyme. […]” for “enzyme.”

T1 sequence (Q16513 whole entry): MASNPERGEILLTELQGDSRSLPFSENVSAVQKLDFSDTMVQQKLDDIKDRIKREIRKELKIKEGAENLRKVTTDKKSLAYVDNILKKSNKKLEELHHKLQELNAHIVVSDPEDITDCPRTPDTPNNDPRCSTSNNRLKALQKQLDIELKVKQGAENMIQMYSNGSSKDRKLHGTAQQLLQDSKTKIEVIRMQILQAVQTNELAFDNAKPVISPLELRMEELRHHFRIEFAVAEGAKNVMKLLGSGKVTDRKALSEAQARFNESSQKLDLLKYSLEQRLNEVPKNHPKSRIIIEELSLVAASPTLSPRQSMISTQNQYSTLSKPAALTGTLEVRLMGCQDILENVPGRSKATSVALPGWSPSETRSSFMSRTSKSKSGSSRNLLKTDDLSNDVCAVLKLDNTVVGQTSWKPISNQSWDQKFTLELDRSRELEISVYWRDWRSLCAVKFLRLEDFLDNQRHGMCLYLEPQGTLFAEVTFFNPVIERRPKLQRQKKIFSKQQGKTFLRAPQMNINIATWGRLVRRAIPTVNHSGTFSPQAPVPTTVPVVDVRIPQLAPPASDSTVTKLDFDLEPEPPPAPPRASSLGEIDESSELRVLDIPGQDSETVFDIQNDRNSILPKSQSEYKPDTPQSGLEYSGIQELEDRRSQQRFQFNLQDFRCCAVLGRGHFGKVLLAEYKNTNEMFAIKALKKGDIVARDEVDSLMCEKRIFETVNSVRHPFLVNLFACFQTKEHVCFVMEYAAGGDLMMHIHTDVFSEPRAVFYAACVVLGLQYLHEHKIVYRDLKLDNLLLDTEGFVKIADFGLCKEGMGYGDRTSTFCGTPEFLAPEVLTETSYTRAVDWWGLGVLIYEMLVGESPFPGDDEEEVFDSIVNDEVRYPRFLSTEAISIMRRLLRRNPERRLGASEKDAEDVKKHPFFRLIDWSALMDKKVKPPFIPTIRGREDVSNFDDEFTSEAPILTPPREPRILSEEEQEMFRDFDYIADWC

SMILES	Activity (%) PRK2 (PRK2)	Effect on PDK1 activity (PDK1)	Activity (%) PDK1 (PDK1)	Effect on PKCι activity (PKCι)	Activity (%) Atypical PKCs PKCι (PKCι)
Cl.O=C(O)CC(Cc1nc2cc(-c3ccccc3)ccc2[nH]1)c1ccc(Cl)cc1 (stereo not shown) [PS168]	103%	activates	294%	not	108%
Cl.O=C(O)CC(Cc1nc2c(Cl)cc(Cl)cc2[nH]1)c1ccc(Cl)cc1 (stereo not shown) [PS171]	97%	allosteric activators	246%	not	106%
